Data: article PMC12935787, “Clinical pharmacokinetics and pharmacometabolomics of Andrographis paniculata capsules: Bridging drug disposition and metabolic response to precision medicine” (Naunyn-Schmiedeberg's Archives of Pharmacology, 2025)
Read-outs that look alike come from different tables or passages of the source.

Assays:
[1] = design: method as in Songvut et al. [2023b]; conditions: ref Songvut et al. [2023b], cited from earlier work
[2] = Clinical pharmacokinetics, plasma LC-MS/MS after single oral dose of AP capsules; type: in vivo, human (healthy volunteers); conditions: human, plasma, oral, 2000 mg, 2000 mg AP capsules, read-out: Plasma concentration; for concentration at 0.5 h: 0.50 h; for concentration at 1.5 h: 1.50 h; for concentration at 2.5 h: 2.50 h; for concentration at 3.5 h: 3.50 h
Method: The protocol was published (Tee et al. [2022]).
Seven calibrators ranging from 1, 2, 5,10, 20, 50, and 100 ng mL^−1 were prepared. Frozen plasma was thawed, vortexed-mixes, and processed via protein precipitation: 50 µL plasma plus 100 µL 0.01% ammonia in methanol were vortexed (20 s), centrifuged (14800 rpm, 5 min) and […] supernatant was transferred to 2 mL vials with inserts. LC–MS/MS injection volume: 10 µL. The separation used a Phenomenex Gemini-NX C18 column (150 × 2.1 mm, 5 μm) with 0.01% ammonia (A) and acetonitrile/methanol (1:1, B) as mobile phases (0.30 mL min^-1). The gradient program: 40% B (0 min), linear increase to 95% B (3 min), hold to 5 min, sharp decrease to 10% B (5.01 min), hold to 7 min, return to 40% B (7.01 min), and re-equilibration to 10 min. Mass detection employed an LCMS-8060NX triple quadrupole with heated ESI in negative mode, monitoring specific MRM transitions: andrographolide (349.3 → 331.2/287.1), 14-deoxyandrographolide (331.2 → 108.0/301.1), and neoandrographolide (479.1 → 317.4/161.1).
Pharmacokinetic parameters were determined from plasma samples (5 subjects, 15 time points) analyzed via LC–MS/MS (Shimadzu 8060NX). […] Specific MRM transitions for andrographolide, 14-deoxyandrographolide, and neoandrographolide in plasma samples of subjects are illustrated in Figure S3. […] The dose-dependent concentration–time curves, pharmacokinetics profiles (Fig. 2a, b and c) and comprehensive individual PK data (Table S4) provide a foundation for developing personalized AP dosing regimens, supporting its precision medicine potential.

[3] = AP dose corresponding to 60 mg of andrographolide

C=C1CC[C@@H]2[C@](C)(CO)[C@H](O)CC[C@@]2(C)[C@@H]1C/C=C1/C(=O)OC[C@H]1O [andrographolide]
Cmax, previously reported [1, 3]: 72.1 ± 28.7 ng/mL
Tmax, previously reported [1, 3]: 48 min
tolerance in human PK studies [1]: 180 to 360 mg/day
concentration at 0 h ([2]; S1): 0 ng/mL
concentration at 0.5 h ([2]; S1): 3.76 ng/mL
concentration at 1 h ([2]; S1): 2.41 ng/mL
concentration at 1.5 h ([2]; S1): 6.36 ng/mL
concentration at 2 h ([2]; S1): 5.31 ng/mL
concentration at 2.5 h ([2]; S1): 2.17 ng/mL
concentration at 3 h ([2]; S1): 3.86 ng/mL
concentration at 3.5 h ([2]; S1): 2.81 ng/mL
concentration at 4 h ([2]; S1): 0 ng/mL
concentration at 5 h ([2]; S1): 0 ng/mL
concentration at 6 h ([2]; S1): 0 ng/mL
concentration at 8 h ([2]; S1): 0 ng/mL
concentration at 10 h ([2]; S1): 0 ng/mL
concentration at 12 h ([2]; S1): 0 ng/mL
concentration at 24 h ([2]; S1): 0 ng/mL
concentration at 0 h ([2]; S2): 0 ng/mL
concentration at 0.5 h ([2]; S2): 0 ng/mL
concentration at 1 h ([2]; S2): 3.98 ng/mL
concentration at 1.5 h ([2]; S2): 5.56 ng/mL
concentration at 2 h ([2]; S2): 5.07 ng/mL
concentration at 2.5 h ([2]; S2): 3.13 ng/mL
concentration at 3 h ([2]; S2): 4.68 ng/mL
concentration at 3.5 h ([2]; S2): 0 ng/mL
concentration at 4 h ([2]; S2): 0 ng/mL
concentration at 5 h ([2]; S2): 0 ng/mL
concentration at 6 h ([2]; S2): 0 ng/mL
concentration at 8 h ([2]; S2): 0 ng/mL
concentration at 10 h ([2]; S2): 0 ng/mL
concentration at 12 h ([2]; S2): 0 ng/mL
concentration at 24 h ([2]; S2): 0 ng/mL
concentration at 0 h ([2]; S3): 0 ng/mL
concentration at 0.5 h ([2]; S3): 39.4 ng/mL
concentration at 1 h ([2]; S3): 13.8 ng/mL
concentration at 1.5 h ([2]; S3): 14.2 ng/mL
concentration at 2 h ([2]; S3): 4.19 ng/mL
concentration at 2.5 h ([2]; S3): 3.47 ng/mL
concentration at 3 h ([2]; S3): 0 ng/mL
concentration at 3.5 h ([2]; S3): 0 ng/mL
concentration at 4 h ([2]; S3): 0 ng/mL
concentration at 5 h ([2]; S3): 0 ng/mL
concentration at 6 h ([2]; S3): 0 ng/mL
concentration at 8 h ([2]; S3): 0 ng/mL
concentration at 10 h ([2]; S3): 0 ng/mL
concentration at 12 h ([2]; S3): 0 ng/mL
concentration at 24 h ([2]; S3): 0 ng/mL
concentration at 0 h ([2]; S4): 0 ng/mL
concentration at 0.5 h ([2]; S4): 0 ng/mL
concentration at 1 h ([2]; S4): 18.3 ng/mL
concentration at 1.5 h ([2]; S4): 22.1 ng/mL
concentration at 2 h ([2]; S4): 12.7 ng/mL
concentration at 2.5 h ([2]; S4): 5.06 ng/mL
concentration at 3 h ([2]; S4): 4.2 ng/mL
concentration at 3.5 h ([2]; S4): 2.09 ng/mL
